Experimental data as given in ChEMBL document CHEMBL2057094, “Inhibition of VEGF transcription through blockade of the hypoxia inducible factor-1α-p300 interaction by a small molecule” (Bioorg Med Chem Lett, 2012).
Active and inactive are the calls of the source. No cut-off for these calls is given here.

Experiments:
[1] = target: T1, Histone acetyltransferase p300/Hypoxia-inducible factor 1-alpha (Homo sapiens, UniProt Q09472+Q16665); assay: Inhibition of deferoxamine-induced HIF-1alpha/resin-bound GST-p300 interaction human HeLa cells using coomasie blue staining by GST pull-down assay; format: cell-based
Target sequence in this assay (Q09472 2-2414 limits assumed): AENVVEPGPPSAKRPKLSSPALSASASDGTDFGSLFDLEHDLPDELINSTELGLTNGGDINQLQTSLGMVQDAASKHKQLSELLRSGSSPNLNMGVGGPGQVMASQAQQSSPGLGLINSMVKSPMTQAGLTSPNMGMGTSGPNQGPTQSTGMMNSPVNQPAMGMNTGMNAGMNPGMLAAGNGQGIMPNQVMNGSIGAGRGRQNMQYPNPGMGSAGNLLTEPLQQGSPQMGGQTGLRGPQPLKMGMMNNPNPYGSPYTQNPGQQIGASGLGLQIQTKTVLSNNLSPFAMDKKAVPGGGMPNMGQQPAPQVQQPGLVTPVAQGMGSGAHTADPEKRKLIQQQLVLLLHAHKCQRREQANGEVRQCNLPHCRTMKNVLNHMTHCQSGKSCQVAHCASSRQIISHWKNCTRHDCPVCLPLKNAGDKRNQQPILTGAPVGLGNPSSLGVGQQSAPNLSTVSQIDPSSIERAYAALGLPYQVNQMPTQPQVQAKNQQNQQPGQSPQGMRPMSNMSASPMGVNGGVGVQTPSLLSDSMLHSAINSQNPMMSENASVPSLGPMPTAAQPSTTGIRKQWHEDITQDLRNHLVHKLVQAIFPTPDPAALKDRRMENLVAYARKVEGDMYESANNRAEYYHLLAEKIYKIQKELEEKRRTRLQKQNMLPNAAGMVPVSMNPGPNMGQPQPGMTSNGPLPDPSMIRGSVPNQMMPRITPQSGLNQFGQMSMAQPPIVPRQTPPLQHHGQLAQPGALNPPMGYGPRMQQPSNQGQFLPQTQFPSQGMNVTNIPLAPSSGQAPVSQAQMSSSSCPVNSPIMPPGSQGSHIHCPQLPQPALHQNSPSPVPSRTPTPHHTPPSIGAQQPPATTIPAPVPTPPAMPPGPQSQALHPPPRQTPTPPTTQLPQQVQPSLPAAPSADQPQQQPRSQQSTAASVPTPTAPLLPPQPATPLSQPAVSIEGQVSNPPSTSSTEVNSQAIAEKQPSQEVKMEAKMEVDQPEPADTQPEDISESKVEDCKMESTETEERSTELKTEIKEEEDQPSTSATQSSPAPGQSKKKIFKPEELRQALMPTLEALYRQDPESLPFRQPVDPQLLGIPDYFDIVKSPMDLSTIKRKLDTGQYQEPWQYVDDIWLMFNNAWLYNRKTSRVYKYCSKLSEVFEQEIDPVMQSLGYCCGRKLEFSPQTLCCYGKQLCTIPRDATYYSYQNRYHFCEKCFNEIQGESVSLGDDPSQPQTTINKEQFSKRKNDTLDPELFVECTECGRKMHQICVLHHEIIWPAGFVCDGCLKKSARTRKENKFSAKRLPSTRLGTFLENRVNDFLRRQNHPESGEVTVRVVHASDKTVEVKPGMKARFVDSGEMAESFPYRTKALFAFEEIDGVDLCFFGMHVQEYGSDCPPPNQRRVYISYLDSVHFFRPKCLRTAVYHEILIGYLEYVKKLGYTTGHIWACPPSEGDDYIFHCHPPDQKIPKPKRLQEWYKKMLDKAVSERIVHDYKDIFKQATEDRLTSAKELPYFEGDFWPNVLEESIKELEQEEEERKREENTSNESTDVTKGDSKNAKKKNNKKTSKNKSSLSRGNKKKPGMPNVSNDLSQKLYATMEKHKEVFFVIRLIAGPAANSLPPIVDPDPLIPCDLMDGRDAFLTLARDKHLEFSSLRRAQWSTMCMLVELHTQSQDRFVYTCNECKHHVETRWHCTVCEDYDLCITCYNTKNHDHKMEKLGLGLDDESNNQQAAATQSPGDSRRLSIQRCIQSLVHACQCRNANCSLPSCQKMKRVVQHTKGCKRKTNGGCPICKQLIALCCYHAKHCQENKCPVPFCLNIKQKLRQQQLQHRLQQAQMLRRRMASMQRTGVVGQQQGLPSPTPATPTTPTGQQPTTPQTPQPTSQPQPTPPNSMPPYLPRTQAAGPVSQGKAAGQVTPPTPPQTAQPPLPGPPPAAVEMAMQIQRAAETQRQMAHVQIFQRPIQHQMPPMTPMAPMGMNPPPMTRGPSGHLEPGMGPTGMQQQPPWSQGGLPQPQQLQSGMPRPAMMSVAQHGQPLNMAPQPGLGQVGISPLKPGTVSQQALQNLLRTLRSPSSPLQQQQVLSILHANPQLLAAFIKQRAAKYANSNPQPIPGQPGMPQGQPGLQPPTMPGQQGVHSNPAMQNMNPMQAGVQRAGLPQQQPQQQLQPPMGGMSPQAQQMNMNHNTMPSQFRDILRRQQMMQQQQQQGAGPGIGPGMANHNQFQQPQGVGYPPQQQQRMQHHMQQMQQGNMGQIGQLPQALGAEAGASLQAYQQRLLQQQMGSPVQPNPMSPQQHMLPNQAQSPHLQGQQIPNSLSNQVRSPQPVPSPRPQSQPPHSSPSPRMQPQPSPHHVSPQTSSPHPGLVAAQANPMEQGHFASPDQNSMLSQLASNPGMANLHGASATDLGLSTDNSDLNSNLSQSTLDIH
Target sequence in this assay (Q16665 whole entry partner, the tested form may be a part): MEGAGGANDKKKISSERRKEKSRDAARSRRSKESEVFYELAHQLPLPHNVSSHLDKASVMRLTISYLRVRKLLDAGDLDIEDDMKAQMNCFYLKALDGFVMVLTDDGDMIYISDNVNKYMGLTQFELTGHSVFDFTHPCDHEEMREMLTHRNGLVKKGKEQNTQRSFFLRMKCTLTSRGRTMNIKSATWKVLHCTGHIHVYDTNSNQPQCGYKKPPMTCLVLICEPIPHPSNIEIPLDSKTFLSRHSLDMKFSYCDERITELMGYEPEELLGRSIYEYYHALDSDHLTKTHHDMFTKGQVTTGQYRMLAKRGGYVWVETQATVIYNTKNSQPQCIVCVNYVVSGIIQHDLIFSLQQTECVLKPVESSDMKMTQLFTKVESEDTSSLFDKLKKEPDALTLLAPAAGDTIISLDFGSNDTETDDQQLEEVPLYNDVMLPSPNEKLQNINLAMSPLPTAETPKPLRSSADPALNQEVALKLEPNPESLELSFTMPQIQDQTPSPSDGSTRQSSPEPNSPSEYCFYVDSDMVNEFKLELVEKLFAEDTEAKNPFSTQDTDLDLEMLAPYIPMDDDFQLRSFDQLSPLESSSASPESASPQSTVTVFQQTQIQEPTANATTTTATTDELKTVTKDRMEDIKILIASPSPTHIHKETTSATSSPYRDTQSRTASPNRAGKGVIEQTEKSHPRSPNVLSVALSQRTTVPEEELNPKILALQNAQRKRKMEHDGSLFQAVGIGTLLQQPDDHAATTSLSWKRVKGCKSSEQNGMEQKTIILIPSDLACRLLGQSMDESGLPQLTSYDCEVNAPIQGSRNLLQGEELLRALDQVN

[2] = target: T1, Histone acetyltransferase p300/Hypoxia-inducible factor 1-alpha; assay: Inhibition of human C-terminal activation domain of HIF-1alpha/CH1 domain of GST-p300 interaction using F-786-826 at 200 uM by fluorescence polarization based assay; format: protein-complex assay
Target sequence in this assay (Q09472 2-2414 limits assumed): as the sequence (Q09472 2-2414 limits assumed) above
Target sequence in this assay (Q16665 whole entry partner, the tested form may be a part): as the sequence (Q16665 whole entry partner, the tested form may be a part) above

HeLa [3] = assay: Cytotoxicity against human deferoxamine treated HeLa cells assessed as decrease of cell viability after 48 hrs by MTT assay; format: functional, cell-based
[4] = target: T1, Histone acetyltransferase p300/Hypoxia-inducible factor 1-alpha; assay: Inhibition of human C-terminal activation domain of HIF-1alpha/CH1 domain of GST-p300 interaction using F-786-826 by fluorescence polarization based assay; format: protein-complex assay
[5] = target: Hypoxia-inducible factor 1-alpha (Homo sapiens) (UniProt Q16665); assay: Effect on stabilization of HIF-1alpha in deferoxamine treated human HeLa cells at 50 to 500 uM by Western blot analysis; format: cell-based
Hypoxia-inducible factor 1-alpha (Homo sapiens), sequence (Q16665 whole entry, looked up): as the sequence (Q16665 whole entry partner, the tested form may be a part) above

HeLa [6] = assay: Cytotoxicity against human deferoxamine treated HeLa cells assessed as decrease of cell viability after 24 hrs by MTT assay relative to control; format: functional
[7] = target: Hypoxia-inducible factor 1-alpha (Homo sapiens) (UniProt Q16665); assay: Inhibition of HIF-1alpha in deferoxamine treated human HeLa cells assessed as reduction of VEGF mRNA level at 100 uM after 5 hrs by RT-PCR analysis; format: cell-based

inhibition [1]: Active
inhibition [2]: 80%
IC50 [4]: 107 µM
Activity [5]: inactive
inhibition [7]: Active
Compound: CC(C)Cc1cc(CNC(=O)N2CCN(CC(=O)Nc3ccccc3Cl)CC2)nn1-c1ccccc1.Cl
Activity (HeLa [3]): Dose-dependent effect
Activity (HeLa [6]): 50%
